Tests used:
[1] = Hydroxyl free radical scavenging activity; conditions: n = 3; read-out: IC50, hydroxyl free radical scavenging capacity
Method: In the tube, 0.2 mL of samples, 1 mL of PBS buffer (pH = 7.4),0.2 mL of 5 mmol/L phenanthroline, 0.2 mL of 7.5 mmol/L FeSO4, 0.2 mL of 0.05% H2O2, 3.2 mL of ethanol were added in turn for 20 min in 37 °C. The wavelength used was 536 nm. Each sample was examined in three times and averaged. The hydroxyl free radical scavenging activity was examined according to the formula:4 Hydroxylfreeradicalscavengingactivity%=AC-AS/AC×100% where AS is the absorbance value with samples and AC is the absorbance value without samples.

[2] = test system: lipid peroxidation in rat liver mitochondria; assay: Lipid peroxidation assay in liver mitochondria in vitro (Fe2+/vitamin C); format: biochemical, Sprague–Dawley (SD) rats; conditions: n = 3, read-out: IC50, inhibiting lipid peroxidation
Method: Using the diagnostic kits from Biyuntian (Shanghai, China), liver mitochondria were obtained. The liver mitochondria from Sprague–Dawley (SD) rats were obtained, according to the references of Zuo et al.. In the tubes, 1 mL of mitochondria liquid, 0.5 mL of antioxidant solution, 0.25 mL of 1 mM Vitamin C, and 0.25 mL of 0.1 mM Fe^2+ were added in turn. The positive control group contains 0.5 mL of 0.05 M PBS buffer, instead of the antioxidant solution. The blank group was added 1 mL of mitochondrial liquid and 1 mL of 0.05 M PBS buffer. […] The test tubes were placed in the water for 30 min at 95 °C, then centrifuged for 10 min at 1372g. The wavelength used was 532 nm. Each sample was examined in three times and averaged.

[3] = DPPH free radical scavenging activity; conditions: n = 3; read-out: IC50, DPPH free radical scavenging capacity
Method: According to the references of Lee et al., DPPH free radical scavenging capacity was measured. […] In room temperature and a dark environment, the reaction lasted 30 min. […] Each sample was examined in three times and averaged.

[4] = Superoxide free radical scavenging activity (pyrogallol self-oxidation); conditions: n = 3; read-out: IC50, superoxide free radical scavenging capacity
Method: According to the references of Shen et al., superoxide free radical scavenging capacity was measured using Varioskan Flash multifunction microplate reader (Thermo scientific, USA) and 96 wells plates. Each well was added 264 μL PBS buffer (pH = 8.2), 12 μL samples of different concentrations, 25 °C for 10 min. Then 24 μL of 1.25 mmoL/L pyrogallol solution was added and shaken 3 s quickly. The blank group is ethanol. Absorbance values were measured every 30 s. The reaction lasted 5 min in 37 °C. The wavelength used was 320 nm. Each sample was measured in triplicate and averaged. The slope is the self-oxidation rate of pyrogallol. The lower slope indicated the better superoxide free radicals scavenging capacity. Each sample was examined in three times and averaged. The inhibitory rate was examined according to the formula:5 Superoxidefreeradicalscavengingactivity%=SC-SS/SC×100% where SC is the slope value without samples and SS is the slope value with samples.

mushroom tyrosinase [5] = target: T1, mushroom tyrosinase (Agaricus bisporus, UniProt C7FF04); assay: Determination of the inhibition type and inhibition constant (Lineweaver–Burk plots); format: biochemical; conditions: plots of enzyme activity versus enzyme concentration, oxidation of L-DOPA
T1 sequence (C7FF04 2-392): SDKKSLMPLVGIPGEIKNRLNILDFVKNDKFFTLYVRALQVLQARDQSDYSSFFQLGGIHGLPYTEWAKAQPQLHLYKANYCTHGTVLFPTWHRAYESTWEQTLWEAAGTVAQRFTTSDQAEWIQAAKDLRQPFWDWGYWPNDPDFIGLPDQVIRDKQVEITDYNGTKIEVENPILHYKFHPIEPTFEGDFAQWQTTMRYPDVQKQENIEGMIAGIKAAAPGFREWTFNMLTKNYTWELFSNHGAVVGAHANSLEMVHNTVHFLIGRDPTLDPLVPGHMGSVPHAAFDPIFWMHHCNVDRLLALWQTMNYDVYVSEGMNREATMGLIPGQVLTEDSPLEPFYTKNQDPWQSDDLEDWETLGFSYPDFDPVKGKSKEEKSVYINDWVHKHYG
T1 sequence (G1K3P4 1-150 partner): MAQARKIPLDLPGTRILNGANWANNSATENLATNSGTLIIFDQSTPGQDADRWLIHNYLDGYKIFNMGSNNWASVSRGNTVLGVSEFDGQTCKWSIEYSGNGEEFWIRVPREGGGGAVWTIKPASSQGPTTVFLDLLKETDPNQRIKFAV

[6] = ABTS free radical scavenging activity; conditions: n = 3; read-out: IC50, ABTS free radical scavenging capacity
Method: According to the references of Wan et al., ABTS free radical scavenging capacity was measured. […] ABTS ^+ was produced by reacting 2.45 mmol/L potassium persulfate (K2S2O8) with the ABTS stock solution. The reaction lasted 12–16 h at room temperature in the dark. […] Samples (0.5 mL) were added to ABTS^+ (5 mL) for 6 min. The control group contains 0.5 mL of ethanol and 5 mL of ABTS^+ solution. Each sample was examined in three times and averaged.

mushroom tyrosinase [7] = target: T1, mushroom tyrosinase; assay: Determination of the inhibition type and inhibition constant (Lineweaver–Burk plots); format: biochemical; conditions: for inhibition type: Lineweaver–Burk double-reciprocal plots, tyrosinase diphenolase; for KIS (inhibitor binding with enzyme–substrate complex): plot of vertical intercept (1/Vmapp) versus inhibitor concentration, oxidation of L-DOPA
Method: By Lineweaver–Burk plot, the inhibition type was assayed. The inhibition constant was assayed by the second plots of the apparent Km/Vmapp or 1/Vmapp versus the concentration of the inhibitor.

[8] = set-up: method as in Xu [31]; conditions: ref Xu [31]; cited from earlier work
[9] = set-up: method as in Xu [31]; conditions: ref Xu [31]; cited from earlier work; remark: listed apart in the source
[10] = set-up: method as in Xu [31]; conditions: ref Xu [31]; cited from earlier work; remark: listed apart in the source
[11] = discussion; no reference given; cited from earlier work
[12] = discussion; no reference given; cited from earlier work; remark: listed apart in the source

Compound	IC50 [1]	IC50 [2]	IC50 [3]	IC50 [4]	inhibitory mechanism (reversibility) (mushroom tyrosinase [5])	IC50 [6]	inhibition type (mushroom tyrosinase [7])	KIS (inhibitor binding with enzyme–substrate complex) (mushroom tyrosinase [7])	scavenging capacity of superoxide radical (O2·) [8]	scavenging capacity of alkane radical (ROO·) [9]	scavenging capacity of hydroxyl radical (·OH) [10]	reducing ability [11]	KIS (Fig. 3c) (mushroom tyrosinase [7]; plot of intercept versus concentration of shikonin)	maximum inhibition, DPPH-radical scavenging assay [12]
O=c1cc(-c2ccccc2)oc2cc(O)c(O)c(O)c12 [Baicalein]	11.6 µM	12.5 µM	58.6 µM	16.1 µM	reversible inhibitors	9.09 µM	same inhibitor type as shikonin	38.4 µM	–	–	–	–	–	–
O=C1c2c(O)cc(O)cc2O[C@H](c2cc(O)c(O)c(O)c2)[C@H]1O [Dihydromyricetin]	4.2 µM	6.25 µM	12.4 µM	7.6 µM	reversible inhibitors	3.41 µM	same inhibitor type as shikonin	23.6 µM	90.0%	63.9%	83.9%	–	–	–
O=C(/C=C/c1ccc(O)c(O)c1)O[C@H](Cc1ccc(O)c(O)c1)C(=O)O [Rosmarinic acid]	8.3 µM	8.33 µM	28.5 µM	12.3 µM	reversible inhibitors	6.82 µM	same inhibitor type as shikonin	29.8 µM	–	–	–	–	–	–
CC(C)=CC[C@@H](O)C1=CC(=O)c2c(O)ccc(O)c2C1=O [Shikonin]	18.3 µM	16.7 µM	83.2 µM	31.5 µM	reversible inhibitor	27.3 µM	competitive–uncompetitive mixed type inhibitor	48.6 µM	–	–	–	0.431%	48.6 µmol/L	–
CC(C)=CCCC1=CC(=O)c2c(O)ccc(O)c2C1=O [deoxy-shikonin]	–	–	–	–	–	–	–	–	–	–	–	–	–	0.440%
Isoeugenol	32.5 µM	25.1 µM	102 µM	38.2 µM	reversible inhibitors	36.4 µM	same inhibitor type as shikonin	64.7 µM	–	–	–	–	–	–
